Like-named read-outs stand apart in the source and are kept apart here.
Key:
[1] = Hepatocytes metabolic stability assay; assay type: in vitro ADME; conditions: cryopreserved hepatocytes, human hepatocytes, 1.0×10^6 cells/mL; for CLint scaled at 1 μM: read-out: Human hepatocyte Clint(liver); for half-life at 1 μM: read-out: Human hepatocyte stability T1/2
Description: Hepatocytes Metabolic Stability Assay
The vials of cryopreserved hepatocytes were removed from the liquid nitrogen container and immediately immersed in a 37° C. water bath for approximately 2 min. The melted ice pellets were transferred into tubes containing 50 mL of pre-warmed thawing medium and mixed well by gently inverting the tubes, and then centrifuged at 500 rpm for 3 minutes at room temperature. The supernatants were discarded, and cell pellets were re-suspended by adding appropriate volumes of pre-warmed incubation medium. The cells viability of each species was determined using Trypan Blue exclusion. Add 50 μL of pre-warmed 2× dosing solution to the wells designated for different time points. Then 50 μL of cells suspension (2×10^6 cells/mL) were added into appropriate wells at corresponding time points of T15, T30, T60, T120. Start timing and put the plate in an incubator at 37° C. For TO sample, add 300 μL of ACN containing internal standard to the wells, mix gently, then add 50 μL of pre-warmed hepatocytes solution (2×10^6 cells/mL). The concentration of test compound was 1 μM and 1.0×10^6 cells/mL in the final incubation. At each corresponding time point, test and control compounds reaction samples were stopped by adding 300 μL acetonitrile containing internal standard. All sample plates were thoroughly mixed and centrifuged at 5000×g for 15 minutes. The supernatants were diluted at ratio of 1:1 with ultra-pure water for test and positive controls. Then submitted for LC-MS/MS analysis.
The analyte/internal standard peak area ratios were converted to percentage remaining with the following equation: […]
The in vitro elimination constant, k of test compounds and control compounds were calculated from a log linear plot of % Remaining versus time, then the half-life (T1/2), the estimation of the in vitro hepatic intrinsic clearance (CLint) values were calculated from substrate disappearance rate in hepatocytes incubation: […]

[2] = target: T1, Ba/F3-FL-TYK2-P760L cells (Homo sapiens, UniProt P29597, P760L, cells depend on it); assay: Anti-proliferative assay, Ba/F3-FL-TYK2-P760L cells (Cell-Titer Glo); assay type: cell-based; conditions: 72 h, read-out: BaF3-FL-T2P760L IC50
T1 construct: BaF3-FL-T2P760L (nM)
How it was run: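 Ba/F3 cells made IL-3-independent by TEL-fused or full-length mutant JAK-family kinases, seeded at 2000/well and dosed after 24 h with 9 three-fold dilutions topping at 20 μM. Viability after 72 h at 37 °C, 5% CO2 by Cell-Titer Glo ATP luminescence.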

[3] = Microsomal metabolic stability assay; assay type: in vitro ADME; conditions: pH 7.4, 0.5 mg/mL protein, 1 μM compound
How it was run: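 Test article at 1 μM with 0.5 mg/mL microsomal protein and 2 mM NADPH, in 100 mM potassium phosphate pH 7.4 with 1.0 mM EDTA at 37 °C. Sampled at 0–45 min and quantified by LC/MS/MS. T1/2 from the slope of ln % remaining vs time.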

[4] = target: T2, TYK2-JH2 domain (Homo sapiens, UniProt P29597); assay: Binding activity test for JH2 domain of TYK2 (Tb-antibody/tracer FRET); conditions: for JAK1/TYK2 selectivity: ratio JAK1-JH2 IC50 / TYK2-JH2 IC50
T2 construct: IC50 on JH2 domain activity (nM)
How it was run: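 Compounds tested as 11-point 3-fold serial dilutions against the JH2 domain in a Tb-antibody/tracer FRET binding format. Plates incubated 60 min at 25° C, then overnight at 4° C, before FRET reading.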

[5] = target: T3, JAK1-JH2 domain (Homo sapiens, UniProt P23458); assay: Binding activity test for JH2 domain of JAK1 (Tb-antibody/tracer FRET)
T3 construct: IC50 on JH2 domain activity (nM)
Description: Binding Activity Test for […] Domain of JAK1 and TYK2 The compounds are prepared in DMSO for 200× top dose, then serial dilute it with 27-fold for 3 more points. Add 8 μL/well in echo source plate, echo will add 75 nL/well with 3-fold serial dilution for 11 points in assay plate. 75 nL DMSO for high control and low control. […] For low control, add 5 μL/well assay buffer. And then spin down at 1000 rpm and centrifuge for 30 seconds. After enzyme system prepared, add 5 μL of Tb-antibody solution into each wells of assay plate. Spin down at 1000 rpm and centrifuge for 30 sec. After Tb-antibody added, also add 5 μL of tracer into the assay plate. Spin down at 1000 rpm and centrifuge for 30 sec. Incubate for 60 mins at 25° C. firstly and then continue to incubate the plate at 4° C. overnight. Read by envision in FRET mode. The Luminescence value was recorded by a multi-label reader Envision (PerkinElmer).

[6] = dog liver microsomes, read-out: Dog LM Clint
[7] = dog liver microsomes, read-out: Dog LM T½
[8] = human liver microsomes, read-out: Human LM Clint
[9] = human liver microsomes, read-out: Human LM T½
[10] = rat liver microsomes, read-out: Rat LM Clint
[11] = rat liver microsomes, read-out: Rat LM T½

T1 sequence (P29597 whole entry P760L): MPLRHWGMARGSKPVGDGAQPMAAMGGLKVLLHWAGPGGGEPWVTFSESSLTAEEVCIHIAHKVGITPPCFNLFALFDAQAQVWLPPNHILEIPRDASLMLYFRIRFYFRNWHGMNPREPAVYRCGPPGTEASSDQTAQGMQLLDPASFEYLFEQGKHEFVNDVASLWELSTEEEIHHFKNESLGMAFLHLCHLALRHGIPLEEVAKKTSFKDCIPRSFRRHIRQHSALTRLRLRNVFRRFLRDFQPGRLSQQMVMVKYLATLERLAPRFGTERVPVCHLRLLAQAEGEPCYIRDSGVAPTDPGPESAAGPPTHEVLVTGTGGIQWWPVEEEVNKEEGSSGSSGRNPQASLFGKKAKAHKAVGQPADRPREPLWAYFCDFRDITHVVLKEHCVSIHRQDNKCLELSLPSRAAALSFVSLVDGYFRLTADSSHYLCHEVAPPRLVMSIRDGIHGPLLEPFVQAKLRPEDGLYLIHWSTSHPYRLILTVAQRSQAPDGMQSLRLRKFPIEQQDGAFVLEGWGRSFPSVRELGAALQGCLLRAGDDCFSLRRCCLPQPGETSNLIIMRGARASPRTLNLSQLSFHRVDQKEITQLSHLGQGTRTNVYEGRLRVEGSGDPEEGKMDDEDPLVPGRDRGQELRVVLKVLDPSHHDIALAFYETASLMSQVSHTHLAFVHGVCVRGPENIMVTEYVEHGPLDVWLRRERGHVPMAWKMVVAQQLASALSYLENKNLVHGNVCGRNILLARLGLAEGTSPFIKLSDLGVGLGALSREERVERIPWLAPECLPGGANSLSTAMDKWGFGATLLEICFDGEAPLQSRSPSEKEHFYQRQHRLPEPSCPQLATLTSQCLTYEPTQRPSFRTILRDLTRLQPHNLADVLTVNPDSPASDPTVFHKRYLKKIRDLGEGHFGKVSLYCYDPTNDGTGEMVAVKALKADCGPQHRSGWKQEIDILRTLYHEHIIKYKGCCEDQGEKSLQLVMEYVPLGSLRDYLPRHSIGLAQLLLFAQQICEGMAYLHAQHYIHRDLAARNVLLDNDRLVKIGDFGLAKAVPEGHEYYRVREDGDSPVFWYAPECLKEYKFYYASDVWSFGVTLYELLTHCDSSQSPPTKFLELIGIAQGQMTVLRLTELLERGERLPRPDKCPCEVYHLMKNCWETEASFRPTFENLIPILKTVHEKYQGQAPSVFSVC
T3 sequence (P23458 583-855 limits assumed): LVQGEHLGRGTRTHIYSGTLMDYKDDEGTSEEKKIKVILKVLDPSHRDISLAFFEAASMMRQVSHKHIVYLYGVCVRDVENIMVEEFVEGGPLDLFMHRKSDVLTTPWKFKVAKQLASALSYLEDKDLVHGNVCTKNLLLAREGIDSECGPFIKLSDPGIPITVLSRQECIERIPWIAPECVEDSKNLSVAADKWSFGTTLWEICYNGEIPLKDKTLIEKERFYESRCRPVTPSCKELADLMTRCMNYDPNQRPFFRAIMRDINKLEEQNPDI
T2 sequence (P29597 589-875 limits assumed): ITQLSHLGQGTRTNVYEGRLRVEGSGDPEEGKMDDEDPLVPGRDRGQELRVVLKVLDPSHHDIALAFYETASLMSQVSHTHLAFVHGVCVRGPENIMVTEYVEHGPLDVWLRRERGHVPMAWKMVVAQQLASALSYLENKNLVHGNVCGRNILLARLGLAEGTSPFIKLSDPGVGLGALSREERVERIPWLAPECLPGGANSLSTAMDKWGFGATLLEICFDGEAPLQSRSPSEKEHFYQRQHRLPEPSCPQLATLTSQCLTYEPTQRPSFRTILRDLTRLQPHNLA

CLint scaled at 1 μM [1]	half-life at 1 μM [1]	GI50 [2]	microsomal CLint at 1 μM [3, 6]	half-life at 1 μM [3, 7]	microsomal CLint at 1 μM [3, 8]	half-life at 1 μM [3, 9]	microsomal CLint at 1 μM [3, 10]	half-life at 1 μM [3, 11]	IC50 [4]	JAK1/TYK2 selectivity [4]	IC50 [5]	Structure (SMILES)
–	–	0.0417 µM	97.2 µL/min/mg	0.238 h	29.2 µL/min/mg	0.791 h	40.9 µL/min/mg	0.566 h	0.00029 µM	87.4	0.0254 µM	[2H]C([2H])([2H])NC(=O)c1cnc(Nc2ccc(F)cn2)cc1Nc1ncc2cnn(CC)c2c1OC [Example 263, 4-((1-Ethyl-7-methoxy-1H-pyrazolo[4,3-c]pyridin-6-yl)amino)-6-((5-fluoropyridin-2-yl)amino)-N-(methyl-d3)nicotinamide]
–	–	0.278 µM	16.9 µL/min/mg	1.37 h	12.1 µL/min/mg	1.91 h	15.4 µL/min/mg	1.5 h	0.00177 µM	41.4	0.0737 µM	[2H]C([2H])([2H])NC(=O)c1cnc(Nc2ccn(C)n2)cc1Nc1ncc2cnn(CC)c2c1OC [Example 264, 4-((1-Ethyl-7-methoxy-1H-pyrazolo[4,3-c]pyridin-6-yl)amino)-N-(methyl-d3)-6-((1-methyl-1H-pyrazol-3-yl)amino)nicotinamide]
–	–	0.0882 µM	–	–	–	–	–	–	0.000253 µM	436.1	0.11 µM	[2H]C([2H])([2H])NC(=O)c1cnc(NC(=O)C2CC2)cc1Nc1ncc2cnn(CC(C)(F)F)c2c1OC [Example 276, 6-(Cyclopropanecarboxamido)-4-((1-(2,2-difluoropropyl)-7-methoxy-1H-pyrazolo[4,3-c]pyridin-6-yl)amino)-N-(methyl-d3)nicotinamide]
–	–	0.0602 µM	–	–	–	–	–	–	0.00111 µM	55.5	0.0614 µM	[2H]C([2H])([2H])NC(=O)c1cnc(Nc2ccc(F)cn2)cc1Nc1ncc2cnn(C([2H])([2H])[2H])c2c1OC [Example 277, 6-((5-Fluoropyridin-2-yl)amino)-4-((7-methoxy-1-(methyl-d3)-1H-pyrazolo[4,3-c]pyridin-6-yl)amino)-N-(methyl-d3)nicotinamide]

Continued, compound first:

Structure (SMILES)	CLint scaled at 1 μM [1]	half-life at 1 μM [1]	GI50 [2]	microsomal CLint at 1 μM [3, 6]	half-life at 1 μM [3, 7]	microsomal CLint at 1 μM [3, 8]	half-life at 1 μM [3, 9]	microsomal CLint at 1 μM [3, 10]	half-life at 1 μM [3, 11]	IC50 [4]	JAK1/TYK2 selectivity [4]	IC50 [5]
[2H]C([2H])([2H])NC(=O)c1nnc(NC(=O)C2CC2)cc1Nc1cccc(-c2ncn(C)n2)c1OC [Example 41, 6-(Cyclopropanecarboxamido)-4-((2-methoxy-3-(1-methyl-1H-1,2,4-triazol-3-yl)phenyl)amino)-N-(methyl-d3)pyridazine-3-carboxamide]	< 1.07 L/h/kg	> 3.61 h	–	–	–	–	–	–	–	–	–	–
[2H]C([2H])([2H])NC(=O)c1nnc2cc1Nc1cc(cc(-c3ncn(C)n3)c1OC)COCc1nc(ccc1F)N2 [Example 67, 18-Fluoro-10-methoxy-N-(methyl-d3)-11-(1-methyl-1H-1,2,4-triazol-3-yl)-15-oxa-2,4,5,8,21-pentaazatetracyclo[15.3.1.1^{3,7}.1^{9,13}]tricosa-1(20),3,5,7(23),9(22),10,12,17(21),18-nonaene-6-carboxamide]	< 0.441 L/h/kg	> 4 h	0.0444 µM	31.9 µL/min/mg	0.725 h	7.54 µL/min/mg	3.06 h	47.4 µL/min/mg	0.488 h	–	–	–
[2H]C([2H])([2H])NC(=O)c1cnc(NC(=O)C2CC2)cc1Nc1nn(CC)c2ccn(CC(F)(F)F)c(=O)c12 [Example 105, 6-(Cyclopropanecarboxamido)-4-((1-ethyl-4-oxo-5-(2,2,2-trifluoroethyl)-4,5-dihydro-1H-pyrazolo[4,3-c]pyridin-3-yl)amino)-N-(methyl-d3)nicotinamide]	0.521 L/h/kg	3.38 h	0.146 µM	10.4 µL/min/mg	2.22 h	5.58 µL/min/mg	4.14 h	45.9 µL/min/mg	0.503 h	0.000733 µM	–	–
[2H]C([2H])([2H])NC(=O)c1cnc(NC(=O)C2CC2)cc1Nc1ccc2cnn(CC)c2c1OC([2H])([2H])[2H] [Example 132, 6-(Cyclopropanecarboxamido)-4-((1-ethyl-7-(methoxy-d3)-1H-indazol-6-yl)amino)-N-(methyl-d3)nicotinamide]	1.14 L/h/kg	1.55 h	0.0708 µM	–	–	24 µL/min/mg	0.963 h	–	–	–	–	–
[2H]C([2H])([2H])NC(=O)c1cnc(Nc2cnn(C3CC3)c2)nc1Nc1ccc2cnn(CC)c2c1OC([2H])([2H])[2H] [Example 137, 2-((1-Cyclopropyl-1H-pyrazol-4-yl)amino)-4-((1-ethyl-7-(methoxy-d3)-1H-indazol-6-yl)amino)-N-(methyl-d3)pyrimidine-5-carboxamide]	0.863 L/h/kg	2.04 h	0.335 µM	–	–	–	–	–	–	–	–	–
[2H]C([2H])([2H])NC(=O)c1cnc(Nc2ccncn2)cc1Nc1ccc2cnn(C([2H])([2H])[2H])c2c1OC [Example 153, 4-((7-Methoxy-1-(methyl-d3)-1H-indazol-6-yl)amino)-N-(methyl-d3)-6-(pyrimidin-4-ylamino)nicotinamide]	–	–	0.0713 µM	51.9 µL/min/mg	0.445 h	50.4 µL/min/mg	0.458 h	90.5 µL/min/mg	0.255 h	0.000455 µM	33.2	0.0151 µM
[2H]C([2H])([2H])NC(=O)c1cnc(Nc2ccc(F)cn2)cc1Nc1ccn2ncc(C#N)c2c1OC [Example 257, 4-((3-Cyano-4-methoxypyrazolo[1,5-a]pyridin-5-yl)amino)-6-((5-fluoropyridin-2-yl)amino)-N-(methyl-d3)nicotinamide]	–	–	0.0397 µM	9.01 µL/min/mg	2.56 h	9.51 µL/min/mg	2.43 h	20.2 µL/min/mg	1.14 h	0.000135 µM	23.5	0.00318 µM
[2H]C([2H])([2H])NC(=O)c1cnc(NC(=O)C2CC2)cc1Nc1ccc2cnn(CC(N)=O)c2c1OC [Example 259, 4-((1-(2-Amino-2-oxoethyl)-7-methoxy-1H-indazol-6-yl)amino)-6-(cyclopropanecarboxamido)-N-(methyl-d3)nicotinamide]	–	–	> 5 µM	9.24 µL/min/mg	2.5 h	4.39 µL/min/mg	5.26 h	4.7 µL/min/mg	4.92 h	0.00629 µM	12.7	0.0799 µM
[2H]C([2H])([2H])NC(=O)c1cnc(NC(=O)C2CC2)cc1Nc1ccn2ncc(OC)c2c1OC [Example 278, 6-(Cyclopropanecarboxamido)-4-((3,4-dimethoxypyrazolo[1,5-a]pyridin-5-yl)amino)-N-(methyl-d3)nicotinamide]	–	–	0.13 µM	–	–	–	–	–	–	0.000385 µM	25.0	0.00963 µM

Source: patent publication US20250115597A1, “TYK2 INHIBITORS AND COMPOSITIONS AND METHODS THEREOF” (LYNK PHARMACEUTICALS CO. LTD., priority 2021, published 2025)
